≈ marks a conversion by molar mass, not a printed value.
Experiments:
Staphylococcus aureus [1] = experiment: Antibacterial activity against Staphylococcus aureus ATCC 25923 by microbroth dilution method; format: functional
Escherichia coli = experiment: Antibacterial activity against Escherichia coli JM 109 by microbroth dilution method; format: functional
Bacillus subtilis = experiment: Antibacterial activity against Bacillus subtilis ATCC 6633 by microbroth dilution method; format: functional
Candida albicans = experiment: Antifungal activity against Candida albicans ATCC 76615 by microbroth dilution method; format: functional
Candida = experiment: Antifungal activity against Candida mycoderma by microbroth dilution method; format: functional
Pseudomonas aeruginosa = experiment: Antibacterial activity against Pseudomonas aeruginosa by microbroth dilution method; format: functional
Bacillus = experiment: Antibacterial activity against Bacillus proteus by microbroth dilution method; format: functional
Micrococcus luteus = experiment: Antibacterial activity against Micrococcus luteus by microbroth dilution method; format: functional
Salmonella typhi = experiment: Antibacterial activity against Bacillus typhi by microbroth dilution method; format: functional, Salmonella enterica subsp. enterica serovar Typhi; conditions: Salmonella enterica
Staphylococcus aureus [2] = experiment: Antibacterial activity against methicillin-resistant Staphylococcus aureus N 315 by microbroth dilution method; format: functional

SMILES | MIC (Staphylococcus aureus [1]) | MIC (Escherichia coli) | MIC (Bacillus subtilis) | MIC (Candida albicans) | MIC (Candida) | MIC (Pseudomonas aeruginosa) | MIC (Bacillus) | MIC (Micrococcus luteus) | MIC (Salmonella typhi) | MIC (Staphylococcus aureus [2])
O=C1c2cccc3c(Br)ccc(c23)C(=O)N1CCCn1cncn1 | > 512 µg/mL | > 512 µg/mL | 256 µg/mL (≈ 665 µM) | 256 µg/mL (≈ 665 µM) | 256 µg/mL (≈ 665 µM) | 256 µg/mL (≈ 665 µM) | 256 µg/mL (≈ 665 µM) | > 512 µg/mL | > 512 µg/mL | > 512 µg/mL
O=C1c2cccc3c(Br)ccc(c23)C(=O)N1CCCCn1cncn1 | > 512 µg/mL | > 512 µg/mL | > 512 µg/mL | > 512 µg/mL | > 512 µg/mL | 256 µg/mL (≈ 641 µM) | 256 µg/mL (≈ 641 µM) | > 512 µg/mL | > 512 µg/mL | > 512 µg/mL
O=C1c2cccc3c(Br)ccc(c23)C(=O)N1CCCCCn1cncn1 | > 512 µg/mL | > 512 µg/mL | > 512 µg/mL | > 512 µg/mL | > 512 µg/mL | 256 µg/mL (≈ 619 µM) | > 512 µg/mL | > 512 µg/mL | > 512 µg/mL | > 512 µg/mL
O=C1c2cccc3c(Br)ccc(c23)C(=O)N1CCCn1c[n+](Cc2ccc(F)cc2F)cn1.[Br-] | 16 µg/mL | 4 µg/mL | 4 µg/mL | 8 µg/mL | 4 µg/mL | 1 µg/mL | 8 µg/mL | 8 µg/mL | 4 µg/mL | 4 µg/mL
O=C1c2cccc3c(Br)ccc(c23)C(=O)N1CCCn1c[n+](Cc2ccc(Cl)cc2Cl)cn1.[Br-] | 16 µg/mL | 4 µg/mL | 8 µg/mL | 8 µg/mL | 8 µg/mL | 4 µg/mL | 4 µg/mL | 8 µg/mL | 16 µg/mL | 16 µg/mL
O=C1c2cccc3c(Br)ccc(c23)C(=O)N1CCCn1c[n+](Cc2ccc(Cl)c(Cl)c2)cn1.[Br-] | 16 µg/mL | 16 µg/mL | 32 µg/mL | 16 µg/mL | 16 µg/mL | 16 µg/mL | 32 µg/mL | 16 µg/mL | 16 µg/mL | 16 µg/mL
O=C1c2cccc3c(Br)ccc(c23)C(=O)N1CCCn1c[n+](Cc2ccccc2Cl)cn1.[Br-] | 16 µg/mL | 16 µg/mL | 32 µg/mL | 8 µg/mL | 32 µg/mL | 16 µg/mL | 32 µg/mL | 16 µg/mL | 32 µg/mL | 16 µg/mL
O=C1c2cccc3c(Br)ccc(c23)C(=O)N1CCCn1c[n+](Cc2ccc(Cl)cc2)cn1.[Br-] | 32 µg/mL | 8 µg/mL | 16 µg/mL | 16 µg/mL | 16 µg/mL | 8 µg/mL | 16 µg/mL | 8 µg/mL | 16 µg/mL | 8 µg/mL
O=C1c2cccc3c(Br)ccc(c23)C(=O)N1CCCn1c[n+](Cc2ccc([N+](=O)[O-])cc2)cn1.[Br-] | 32 µg/mL | 16 µg/mL | 32 µg/mL | 32 µg/mL | 16 µg/mL | 32 µg/mL | 16 µg/mL | 32 µg/mL | 32 µg/mL | 16 µg/mL
O=C1c2cccc3c(Br)ccc(c23)C(=O)N1CCCCn1c[n+](Cc2ccc(F)cc2F)cn1.[Br-] | 16 µg/mL | 8 µg/mL | 16 µg/mL | 16 µg/mL | 32 µg/mL | 2 µg/mL | 16 µg/mL | 16 µg/mL | 8 µg/mL | 16 µg/mL
O=C1c2cccc3c(Br)ccc(c23)C(=O)N1CCCCCn1c[n+](Cc2ccc(F)cc2F)cn1.[Br-] | 32 µg/mL | 8 µg/mL | 32 µg/mL | 16 µg/mL | 16 µg/mL | 2 µg/mL | 32 µg/mL | 16 µg/mL | 16 µg/mL | 16 µg/mL
O=C1c2cccc3c(Br)ccc(c23)C(=O)N1CCCn1ccnc1 | 16 µg/mL (≈ 41.6 µM) | 16 µg/mL (≈ 41.6 µM) | 16 µg/mL (≈ 41.6 µM) | 64 µg/mL (≈ 167 µM) | 64 µg/mL (≈ 167 µM) | 32 µg/mL (≈ 83.3 µM) | 16 µg/mL (≈ 41.6 µM) | 16 µg/mL (≈ 41.6 µM) | 16 µg/mL (≈ 41.6 µM) | 16 µg/mL (≈ 41.6 µM)
O=C1c2cccc3c(Br)ccc(c23)C(=O)N1CCCCn1ccnc1 | 16 µg/mL (≈ 40.2 µM) | 8 µg/mL (≈ 20.1 µM) | 32 µg/mL (≈ 80.3 µM) | 64 µg/mL (≈ 161 µM) | 32 µg/mL (≈ 80.3 µM) | 16 µg/mL (≈ 40.2 µM) | 16 µg/mL (≈ 40.2 µM) | 16 µg/mL (≈ 40.2 µM) | 16 µg/mL (≈ 40.2 µM) | 16 µg/mL (≈ 40.2 µM)
O=C1c2cccc3c(Br)ccc(c23)C(=O)N1CCCCCn1ccnc1 | 64 µg/mL (≈ 155 µM) | 32 µg/mL (≈ 77.6 µM) | 64 µg/mL (≈ 155 µM) | 128 µg/mL (≈ 310 µM) | 64 µg/mL (≈ 155 µM) | 64 µg/mL (≈ 155 µM) | 32 µg/mL (≈ 77.6 µM) | 64 µg/mL (≈ 155 µM) | 128 µg/mL (≈ 310 µM) | 128 µg/mL (≈ 310 µM)
O=C1c2cccc3c(Br)ccc(c23)C(=O)N1CCCCCCn1ccnc1 | 64 µg/mL (≈ 150 µM) | 64 µg/mL (≈ 150 µM) | 16 µg/mL (≈ 37.5 µM) | 32 µg/mL (≈ 75.1 µM) | 32 µg/mL (≈ 75.1 µM) | 128 µg/mL (≈ 300 µM) | 16 µg/mL (≈ 37.5 µM) | 128 µg/mL (≈ 300 µM) | 32 µg/mL (≈ 75.1 µM) | 64 µg/mL (≈ 150 µM)
O=C1c2cccc3c(Br)ccc(c23)C(=O)N1CCCn1cc[n+](Cc2ccc(F)cc2F)c1.[Br-] | 4 µg/mL | 8 µg/mL | 8 µg/mL | 32 µg/mL | 32 µg/mL | 8 µg/mL | 8 µg/mL | 8 µg/mL | 8 µg/mL | 4 µg/mL
O=C1c2cccc3c(Br)ccc(c23)C(=O)N1CCCCn1cc[n+](Cc2ccc(F)cc2F)c1.[Br-] | 8 µg/mL | 8 µg/mL | 8 µg/mL | 32 µg/mL | 16 µg/mL | 16 µg/mL | 16 µg/mL | 8 µg/mL | 8 µg/mL | 2 µg/mL
O=C1c2cccc3c(Br)ccc(c23)C(=O)N1CCCCCn1cc[n+](Cc2ccc(F)cc2F)c1.[Br-] | 16 µg/mL | 16 µg/mL | 16 µg/mL | 16 µg/mL | 16 µg/mL | 16 µg/mL | 4 µg/mL | 4 µg/mL | 16 µg/mL | 8 µg/mL
O=C1c2cccc3c(Br)ccc(c23)C(=O)N1CCCCCCn1cc[n+](Cc2ccc(F)cc2F)c1.[Br-] | 16 µg/mL | 32 µg/mL | 16 µg/mL | 32 µg/mL | 32 µg/mL | 64 µg/mL | 32 µg/mL | 32 µg/mL | 32 µg/mL | 16 µg/mL
O=C1c2cccc3c(Br)ccc(c23)C(=O)N1CCCCCCn1cncn1 | > 512 µg/mL | > 512 µg/mL | > 512 µg/mL | > 512 µg/mL | > 512 µg/mL | > 512 µg/mL | > 512 µg/mL | > 512 µg/mL | > 512 µg/mL | > 512 µg/mL
O=C1c2cccc3c(Br)ccc(c23)C(=O)N1CCCCCCn1c[n+](Cc2ccc(F)cc2F)cn1.[Br-] | 16 µg/mL | 32 µg/mL | 16 µg/mL | 32 µg/mL | 64 µg/mL | 8 µg/mL | 32 µg/mL | 32 µg/mL | 16 µg/mL | 32 µg/mL
O=C(N[C@H](CO)[C@H](O)c1ccc([N+](=O)[O-])cc1)C(Cl)Cl [CHLORAMPHENICOL] | 2 µg/mL (≈ 6.19 µM) | 8 µg/mL (≈ 24.8 µM) | 4 µg/mL (≈ 12.4 µM) |  |  | 16 µg/mL (≈ 49.5 µM) | 2 µg/mL (≈ 6.19 µM) | 8 µg/mL (≈ 24.8 µM) | 8 µg/mL (≈ 24.8 µM) | 4 µg/mL (≈ 12.4 µM)
OC(Cn1cncn1)(Cn1cncn1)c1ccc(F)cc1F [FLUCONAZOLE] |  |  |  | 1 µg/mL (≈ 3.27 µM) | 4 µg/mL (≈ 13.1 µM) |  |  |  |  | 
C[C@@H]1CN(c2c(F)c(F)c3c(=O)c(C(=O)O)cn(C4CC4)c3c2F)C[C@H](C)N1 [ORBIFLOXACIN] | 2 µg/mL (≈ 5.06 µM) | 1 µg/mL (≈ 2.53 µM) | 2 µg/mL (≈ 5.06 µM) |  |  | 1 µg/mL (≈ 2.53 µM) | 4 µg/mL (≈ 10.1 µM) | 1 µg/mL (≈ 2.53 µM) | 1 µg/mL (≈ 2.53 µM) | 1 µg/mL (≈ 2.53 µM)
